Results from US10858316B2, “Small molecule inhibitors of the MCL-1 oncoprotein and uses thereof” (University of Maryland, Baltimore, priority 2015, dated 2020).
Several values for one entry are separate records, joined by “and”; a condition that tells them apart may be missing. Equal values may be shown once. Read-outs that look alike come from different tables or passages of the source.

Columns and labels:
Mcl-1 [1] = molecular target: Mcl-1 (Homo sapiens (Human), UniProt Q07820); test: Fluorescence polarization competition assay (FPCA), Mcl-1 / FITC-Bak BH3 peptide; type: binding; settings: for Ki: read-out: Mcl-1 Ki; for Mcl-1 Exp ΔG: ΔG=−RTlnKi from experimental Ki
Chain of Mcl-1 (Homo sapiens (Human), UniProt Q07820) (Q07820 172-327): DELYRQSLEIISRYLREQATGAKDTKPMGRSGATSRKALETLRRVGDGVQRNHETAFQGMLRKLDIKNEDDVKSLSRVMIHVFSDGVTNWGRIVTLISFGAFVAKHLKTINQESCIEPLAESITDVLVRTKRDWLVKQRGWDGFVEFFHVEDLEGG
How it was run: (§1)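 Purified Mcl-1 (affinity tag cleaved, size-exclusion polished) competed against FITC-labeled Bak-BH3 peptide, read by fluorescence polarization. IC50 from Hill-equation fit; Ki derived from IC50 by the Nikolovska-Coleska equation.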

A375 melanoma cells = test: Cell proliferation / viability, CellTiter-Blue assay, A375; type: cell-based, human; settings: CellTiter-Blue assay; read-out: GI50, viability of A375 cells
Procedure: Without being limited to any one theory, the poor efficacy in cells may be attributed to the charged carboxylic acid of 3bl.
The moderate cellular activity of ±-2 may, for instance, be due to limited cell penetration owing to the charged carboxylic acid. Thus, the acetoxymethyl ester ±-12 (R1=CH2OCOCH3) was prepared as a neutral prodrug of ±-2.

HL-60 cell line = test: Cell viability of HL-60 cell line after treating with inhibitors for 24 hrs; type: cell-based, human
Source text: The moderate cell grow inhibition ability for the two carboxylic acid ester prodrugs 20 and 21 could be attributed to the enzymatic hydrolysis that generated a free acid molecule (13ag) to function as an Mcl-1 inhibitor in the cells.

Bcl-xL = Bcl-xL (Homo sapiens (Human), UniProt Q07817); test: Fluorescence polarization competition assay, Bcl-xL; type: binding; settings: for Ki: Ki from IC50 by Nikolovska-Coleska equation, NA = no activity, read-out: Bcl-xL Ki; for Bcl-xL Exp ΔG: ΔG from experimental Ki
Chain of Bcl-xL (Q07817 whole entry): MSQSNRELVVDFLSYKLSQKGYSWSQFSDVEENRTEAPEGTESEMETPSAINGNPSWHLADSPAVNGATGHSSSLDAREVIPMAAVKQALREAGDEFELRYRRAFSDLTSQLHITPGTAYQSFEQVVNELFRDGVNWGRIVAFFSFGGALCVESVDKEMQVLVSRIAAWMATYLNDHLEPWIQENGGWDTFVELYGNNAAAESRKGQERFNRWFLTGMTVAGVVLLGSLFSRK
Procedure: Fluorescence polarization experiments were conducted using a BMG PHERAstar FS multimode microplate reader equipped with two PMTs for simultaneous measurements of the perpendicular and parallel fluorescence emission. The assays were performed in black polypropylene 384-well microplate (Costar) with a final volume of 20 microliter. […] Regression analysis was carried out using Origin (OriginLab, Northampton, Mass.) to fit the data to the Hill equation (1) to determine the initial binding affinity (KD) and the IC50 in the FPCA. For the fluorescence polarization competition titrations, an equation derived by Nikolovska-Coleska et al. was used to calculate the Ki from the IC50 data.

Mcl-1 [2] = test: Fluorescence polarization competition assay (FPCA), Mcl-1 / FITC-Bak BH3 peptide; type: binding, human; settings: for Selectivity, Ki (Bcl-xL) divided by Ki (Mcl-1): Mcl-1 over Bcl-xL; for Exp. ΔG diff.: between Mcl-1 and Bcl-xL, positive favors Mcl-1
How it was run: as §1

[3] = FPCA with FITC-Bak, Ki from IC50 by Nikolovska-Coleska equation
[4] = read-out: HL-60 IC50 0.5% FBS, 0.5% FBS
[5] = read-out: HL-60 IC50 10% FBS, 10% FBS

| Selectivity, Ki (Bcl-xL) divided by Ki (Mcl-1) (Mcl-1 [2]) | Mcl-1 Exp ΔG (Mcl-1 [1]) [kcal/mol] | Bcl-xL Exp ΔG (Bcl-xL) [kcal/mol] | SMILES | Ki (Mcl-1 [1]; [3]) | Ki (Bcl-xL) [µM] | Exp. ΔG diff. (Mcl-1 [2]) [kcal/mol] | other results |
| --- | --- | --- | --- | --- | --- | --- | --- |
|  |  |  | CC(=O)OCOC(=O)C1Cc2ccccc2N(S(=O)(=O)c2ccc(Oc3cc(C)c(Cl)c(C)c3)cc2)C1 (racemic) [±-12] | > 500 µM |  |  | Ki (Mcl-1 [1]; FPC assay): > 500 µM; GI50 (A375 melanoma cells): 73 µM |
|  |  |  | Cc1cc(Oc2ccc(S(=O)(=O)N(CC(C)C)c3ccc(O)c(C(=O)O)c3)cc2)cc(C)c1Cl [JY-5-304 18bd] | 0.586 ± 0.041 µM | 2.91 ± 0.191 |  | Ki (Mcl-1 [1]; FPCA): 0.586 µM; IC50 (HL-60 cell line; [4]): 9.82 µM; IC50 (HL-60 cell line; [5]): > 120 µM |
|  |  |  | COC(=O)c1ccc(N(CC(C)C)S(=O)(=O)c2ccc(Oc3ccccc3)cc2)cc1O [LC-4-131 20] | > 500 µM |  |  | IC50 (HL-60 cell line; [4]): 68.1 µM; IC50 (HL-60 cell line; [5]): 76.4 µM |
| 2.5 |  |  | Cc1ccc(Oc2ccc(NS(=O)(=O)c3cc(C(=O)O)c(O)c4ccccc34)cc2)cc1 [Compound 3bc, 1-Hydroxy-4-(N-(4-(p-tolyloxy)phenyl)sulfamoyl)-2-naphthoic Acid] | 0.335 µM | 0.84 ± 0.05 |  |  |
| 5.2 |  |  | O=C(O)c1cc(S(=O)(=O)Nc2ccc([N+](=O)[O-])cc2)c2ccccc2c1O [Compound 3ac, 1-Hydroxy-4-(N-(4-nitrophenyl)sulfamoyl)-2-naphthoic Acid] | 4.49 ± 1.2 µM | 23.3 ± 2.5 |  |  |
|  | -6.38 | -4.73 | O=C(O)c1cc(S(=O)(=O)NCc2ccc(Cl)cc2)c2ccccc2c1O [3f; SF-5-264] |  |  | 1.65 |  |
| 19 |  |  | O=C(O)c1cc(S(=O)(=O)Nc2ccc(Br)cc2)c2ccccc2c1O [Compound 3a, 4-(N-(4-bromophenyl)sulfamoyl)-1-hydroxy-2-naphthoic Acid] | 2.76 µM | 51.4 ± 31.3 |  | IC50 (Mcl-1 [1]; FPCA, read-out: IC50 disruption of Mcl-1-Bak-BH3 PPI): 10.9 µM |
|  | -8.93 | -8.74 | Cc1cc(C)cc(Oc2ccc(NS(=O)(=O)c3cc(C(=O)O)c(O)c4ccccc34)cc2)c1 [3bf; SF-5-306] |  |  | 0.19 |  |
|  |  |  | CC(=O)OCOC(=O)c1ccc(N(CC(C)C)S(=O)(=O)c2ccc(Oc3ccccc3)cc2)cc1O [LC-4-141 21] |  |  |  | IC50 (HL-60 cell line; [4]): 46.4 µM; IC50 (HL-60 cell line; [5]): > 120 µM |
|  | -9.66 | -9.08 | O=C(O)c1cc(S(=O)(=O)Nc2ccc(Oc3cccc4ccccc34)cc2)c2ccccc2c1O [3bd; SF-5-300] |  |  | 0.58 |  |
|  |  |  | Cc1cc(Oc2ccc(S(=O)(=O)N(Cc3ccccc3)c3ccc(C(=O)NS(=O)(=O)c4ccc(NCC5CCOCC5)c([N+](=O)[O-])c4)c(O)c3)cc2)cc(C)c1Cl [LC-5-131 31] | 0.8 ± 0.07 µM | 1.61 ± 0.176 |  | Ki (Mcl-1 [1]; FPCA): 0.8 µM; IC50 (HL-60 cell line; [4]): 9.96 µM; IC50 (HL-60 cell line; [5]): > 120 µM |
| 2.4 |  |  | O=C(O)c1cc(S(=O)(=O)Nc2ccc(Oc3ccc(Cl)cc3Cl)cc2)c2ccccc2c1O [Compound 3bg, 4-(N-(4-(2,4-Dichlorophenoxy)phenyl)sulfamoyl)-1-hydroxy-2-naphthoic Acid] | 0.079 µM | 0.19 ± 0.02 |  |  |
|  | -7.29 | -6.31 | O=C(O)c1cc(S(=O)(=O)Nc2ccc([N+](=O)[O-])cc2)c2ccccc2c1O [3ac; MEL-3-005] |  |  | 0.98 |  |
|  | -9.68 | -9.23 | Cc1cc(Oc2ccc(N(CC(C)C)S(=O)(=O)c3cc(C(=O)O)c(O)c4ccccc34)cc2)cc(C)c1Cl [3bj; JY-5-377] |  |  | 0.45 |  |
| 4.1 |  |  | Cc1cc(Oc2ccc(NS(=O)(=O)c3cc(C(=O)O)c(O)c4ccccc34)cc2)cc(C)c1Cl [Compound 3bi, 4-(N-(4-(4-Chloro-3,5-dimethylphenoxy)phenyl)sulfamoyl)-1-hydroxy-2-naphthoic Acid] | 0.117 ± 0.06 µM | 0.48 ± 0.05 |  |  |
| 1.4 |  |  | Cc1cc(C)cc(Oc2ccc(NS(=O)(=O)c3cc(C(=O)O)c(O)c4ccccc34)cc2)c1 [Compound 3bf, 4-(N-(4-(3,5-Dimethylphenoxy)phenyl)sulfamoyl)-1-hydroxy-2-naphthoic Acid] | 0.284 µM | 0.39 ± 0.1 |  |  |
|  |  |  | Cc1cc(CCCN(Cc2ccccc2)c2ccc(C(=O)O)c(O)c2)cc(C)c1Cl [LC-5-188 35] | 1.45 µM | 2.98 ± 0.406 |  | IC50 (HL-60 cell line; [4]): 7.36 µM; IC50 (HL-60 cell line; [5]): 88 µM |
|  |  |  | Cc1cc(Oc2ccc(S(=O)(=O)N(Cc3ccccc3)c3ccc(C(=O)O)c(O)c3)cc2)cc(C)c1Cl [LC-4-118 13cc] | 0.659 µM and 0.629 µM | 1.67 ± 0.351 |  | IC50 (HL-60 cell line; [4]): < 7.5 µM; IC50 (HL-60 cell line; [5]): 53.2 µM |
| 2.1 |  |  | Cc1cc(Oc2ccc(N(CC(C)C)S(=O)(=O)c3cc(C(=O)O)c(O)c4ccccc34)cc2)cc(C)c1Cl [Compound 3bj, 4-(N-(4-(4-Chloro-3,5-dimethylphenoxy)phenyl)-N-isobutylsulfamoyl)-1-hydroxy-2-naphthoic Acid] | 0.08 ± 0.019 µM | 0.17 ± 0.06 |  |  |
| 3.8 |  |  | O=C(O)c1cc(S(=O)(=O)Nc2ccc(Oc3cccc(Br)c3)cc2)c2ccccc2c1O [Compound 3be, 4-(N-(4-(3-Bromophenoxy)phenyl)sulfamoyl)-1-hydroxy-2-naphthoic Acid] | 0.114 µM | 0.3 ± 0.04 |  |  |
|  |  |  | CC(C)CN(c1ccc(C(=O)O)c(O)c1)S(=O)(=O)c1ccc(Oc2ccccc2)cc1 [LC-4-099 13ag] | 5.77 µM and 5.8 µM | 18 ± 4.6 |  | IC50 (HL-60 cell line; [4]): 18.5 µM; IC50 (HL-60 cell line; [5]): > 120 µM |
|  | -10.20 | -8.91 | Cc1cc(Oc2ccc(N(C3CCCC3)S(=O)(=O)c3cc(C(=O)O)c(O)c4ccccc34)cc2)cc(C)c1Cl [3bk; JY-5-379] |  |  | 1.29 |  |
|  | -9.45 | -8.61 | Cc1cc(Oc2ccc(NS(=O)(=O)c3cc(C(=O)O)c(O)c4ccccc34)cc2)cc(C)c1Cl [3bi; JY-5-371] |  |  | 0.84 |  |

| SMILES | Selectivity, Ki (Bcl-xL) divided by Ki (Mcl-1) (Mcl-1 [2]) | Mcl-1 Exp ΔG (Mcl-1 [1]) [kcal/mol] | Bcl-xL Exp ΔG (Bcl-xL) [kcal/mol] | Ki (Mcl-1 [1]; [3]) | Ki (Bcl-xL) [µM] | Exp. ΔG diff. (Mcl-1 [2]) [kcal/mol] | other results |
| --- | --- | --- | --- | --- | --- | --- | --- |
| O=C(O)c1cc(S(=O)(=O)Nc2ccc3ccccc3c2)c2ccccc2c1O [Compound 3q, 1-Hydroxy-4-(N-(naphthalen-2-yl)sulfamoyl)-2-naphthoic Acid] | 15 |  |  | 4.58 ± 1.56 µM | 68.5 ± 36.3 |  |  |
| COc1ccc(NS(=O)(=O)c2cc(C(=O)O)c(O)c3ccccc23)cc1 [3z; MEL-3-018] |  | -6.71 | -5.65 |  |  | 1.06 |  |
| COc1ccc(NS(=O)(=O)c2cc(C(=O)O)c(O)c3ccccc23)cc1 [Compound 3z, 1-Hydroxy-4-(N-(4-methoxyphenyl)sulfamoyl)-2-naphthoic Acid] | 6 |  |  | 11.9 ± 2.5 µM | 71.9 ± 21 |  |  |
| O=C(O)c1cc(S(=O)(=O)Nc2cccc3ccccc23)c2ccccc2c1O [Compound 3p, 1-Hydroxy-4-(N-(naphthalen-1-yl)sulfamoyl)-2-naphthoic Acid] | 10 |  |  | 11.2 ± 2 µM | 110 ± 45 |  |  |
| O=C(O)c1cc(S(=O)(=O)Nc2ccccc2C(F)(F)F)c2ccccc2c1O [3u; TA-1-017] |  | -7.35 | -6.43 |  |  | 0.92 |  |
| O=C(O)c1cc(S(=O)(=O)Nc2ccc3ccccc3c2)c2ccccc2c1O [3q; EW-2-057] |  | -7.28 | -5.68 |  |  | 1.60 |  |
| O=C(O)c1cc(S(=O)(=O)Nc2cccc3ccccc23)c2ccccc2c1O [3p; EW-2-056] |  | -6.75 | -5.40 |  |  | 1.35 |  |
| O=C(O)c1cc(S(=O)(=O)Nc2ccc(Br)cc2Br)c2ccccc2c1O [Compound 3o, 4-(N-(2,4-Dibromophenyl)sulfamoyl)-1-hydroxy-2-naphthoic Acid] | 5.5 |  |  |  | 2.31 ± 1.35 |  | Ki (Mcl-1 [1]; FPCA): 0.42 µM |
